This passage reports IC50 results from patent US9765018B2, “IDO inhibitors” (BRISTOL-MYERS SQUIBB COMPANY, priority 2013, dated 2017).

IDO, sequence (P14902 whole entry): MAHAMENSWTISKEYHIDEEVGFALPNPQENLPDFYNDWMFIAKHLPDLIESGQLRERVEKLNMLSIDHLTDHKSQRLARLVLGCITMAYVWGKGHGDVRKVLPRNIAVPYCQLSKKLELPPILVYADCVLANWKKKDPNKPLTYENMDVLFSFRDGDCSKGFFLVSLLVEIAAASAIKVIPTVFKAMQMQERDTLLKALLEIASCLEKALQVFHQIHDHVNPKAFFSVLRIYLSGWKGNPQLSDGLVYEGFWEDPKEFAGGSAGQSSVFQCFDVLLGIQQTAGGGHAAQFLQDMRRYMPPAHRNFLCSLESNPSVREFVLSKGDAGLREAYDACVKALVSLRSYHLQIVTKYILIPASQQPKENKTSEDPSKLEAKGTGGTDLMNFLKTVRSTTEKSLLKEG

The test has as its target IDO (Homo sapiens (Human), UniProt P14902). The test can be described thus: Kynurenine assay in IFN-γ-stimulated Hela cells. It counts as cell-based. Conditions: 20 h, read-out: Hela Kyurenine (IC50). Here is the method: Reagents: Hela cells (ATCC, CCL-2)
IFNg (R&D, 28-IF-100)—resuspend at 10 ug/mL in PBS with 0.1% BSA 30% TCA
Ehrlich reagent (2% w/v p-dimethylaminobenzaldehyde in glacial acetic acid)
Cell Lines and Culture Conditions
Hela cancer cell lines were acquired from the American Type Culture Collection. Cells were maintained in phenol red free-RPMI1640 medium containing high glucose and L-glutamine (Invitrogen) supplemented with 10% fetal bovine serum (FBS; Invitrogen). Cell cultures were incubated at 37° C., 5% CO2, and 100% humidity.
Cell Treatment and Kynurenine Assay
Hela cells were seeded on 96-well plates (40,000 cells per well) and allowed to adhere for 5-6 hours. Cells were then treated with vehicle (DMSO) or with IDO inhibitor at a top dose of 30 μM (3-fold dilution all the way down to 1.5 nM). A final concentration of 100 ng/mL of human recombinant IFN-γ (R&D, 28-IF-100) was immediately added to the cells to stimulate IDO expression. Treated cells were then incubated for 20 hours at 37° C. At the end of the 20 h incubation, reactions were terminated by the addition of 30% TCA to each well. Plates were incubated for 30 minutes at 50° C. to hydrolyze N-formylkynurenine to kynurenine. Cells were centrifuged 10 minutes at 2400 rpm. 100 ul of supernatants were transferred to new 96 flat well plates and mixed with 100 ul Ehrlich reagent. The resulting solution was incubated 10 minutes at RT. Absorbance at 490 nm was read using Spectra Max 384 (Molecular Devices).
As to `CC(C)(C)c1ccccc1Oc1ccc(-c2ccc(C(=O)O)cc2)cc1NC(=O)Nc1ccccc1Cl` [Example 202, 4′-(2-tert-butylphenoxy)-3′-(3-(2-chlorophenyl)ureido)biphenyl-4-carboxylic acid], the IC50 was determined as 1.69 µM. The figure for `O=C(Nc1ccccc1Cl)Nc1cc(-c2ccc(C(=O)O)c(Cl)c2)ccc1Oc1ccccc1C(F)(F)F` [Example 203, 3-chloro-3′-(3-(2-chlorophenyl)ureido)-4′-(2-(trifluoromethyl)phenoxy)biphenyl-4-carboxylic acid] is 0.5 µM. The value for `Cc1cccc(NC(=O)Nc2cc(-c3ccc(C(=O)O)c(Cl)c3)ccc2Oc2ccccc2C(F)(F)F)c1` [Example 204, 3-chloro-3′-(3-m-tolylureido)-4′-(2-(trifluoromethyl)phenoxy)biphenyl-4-carboxylic acid] was 1.25 µM; that for `Cc1ccc(NC(=O)Nc2cc(-c3ccc(C(=O)O)c(Cl)c3)ccc2Oc2ccccc2C(F)(F)F)cc1` [Example 205, 3-chloro-3′-(3-p-tolylureido)-4′-(2-(trifluoromethyl)phenoxy)biphenyl-4-carboxylic acid] was 0.85 µM; that for `O=C(Nc1ccc(C(F)(F)F)cc1)Nc1cc(-c2ccc(C(=O)O)c(Cl)c2)ccc1Oc1ccccc1C(F)(F)F` [Example 207, 3-chloro-4′-(2-(trifluoromethyl)phenoxy)-3′-(3-(4-(trifluoromethyl)phenyl)ureido) biphenyl-4-carboxylic acid] was 1.23 µM. The figure for `CC(C)(C)c1ccccc1Oc1ccc(-c2ccc(C(=O)O)cc2)cc1NC(=O)Nc1ccc(C(F)(F)F)cc1` [Example 209, 4′-(2-tert-butylphenoxy)-3′-(3-(4-(trifluoromethyl)phenyl)ureido) biphenyl-4-carboxylic acid] is 1.74 µM; for `CC(C)(C)c1ccccc1Oc1ccc(-c2ccc(C(=O)O)cc2)cc1NC(=O)Nc1ccccc1C(F)(F)F` [Example 210, 4′-(2-tert-butylphenoxy)-3′-(3-(2-(trifluoromethyl)phenyl)ureido) biphenyl-4-carboxylic acid] it is 1.54 µM; for `COc1cc(-c2ccc(Oc3ccccc3C(C)(C)C)c(NC(=O)Nc3ccccc3C)c2)ccc1C(=O)O` [Example 211, 4′-(2-tert-butylphenoxy)-3-methoxy-3′-(3-o-tolylureido) biphenyl-4-carboxylic acid] it is 1.63 µM. Consider `COc1cc(-c2ccc(Oc3ccccc3C(C)(C)C)c(NC(=O)Nc3cccc(C)c3)c2)ccc1C(=O)O` [Example 212, 4′-(2-tert-butylphenoxy)-3-methoxy-3′-(3-m-tolylureido) biphenyl-4-carboxylic acid], for which the IC50 was found to be 1.07 µM.

Consider `CC(C)(C)c1ccccc1Oc1ccc(-c2ccc(C(=O)O)c(Cl)c2)cc1NC(=O)Nc1ccccc1C(F)(F)F` [Example 214, 4′-(2-tert-butylphenoxy)-3-chloro-3′-(3-(2-(trifluoromethyl)phenyl)ureido) biphenyl-4-carboxylic acid], for which the IC50 was 0.15 µM. With `Cc1ccccc1NC(=O)Nc1cc(-c2ccc(C(=O)O)c(Cl)c2)ccc1Oc1ccccc1C(C)(C)C` [Example 216, 4′-(2-tert-butylphenoxy)-3-chloro-3′-(3-o-tolylureido) biphenyl-4-carboxylic acid], the IC50 came to 1.09 µM. The figure for `CC(C)(C)c1ccccc1Oc1ccc(-c2ccc(C(=O)O)c(F)c2)cc1NC(=O)Nc1ccccc1Cl` [Example 217, 4′-(2-tert-butylphenoxy)-3′-(3-(2-chlorophenyl)ureido)-3-fluorobiphenyl-4-carboxylic acid] is 1.25 µM; for `Cc1ccc(NC(=O)Nc2cc(-c3ccc(C(=O)O)c(F)c3)ccc2Oc2ccccc2C(C)(C)C)cc1` [Example 218, 4′-(2-tert-butylphenoxy)-3-fluoro-3′-(3-p-tolylureido) biphenyl-4-carboxylic acid] it is 0.65 µM; for `CCNC(=O)Nc1cc(-c2cccc(C(=O)O)c2)ccc1Oc1ccccc1C(C)(C)C` [Example 220, 4′-(2-tert-butylphenoxy)-3′-(3-ethylureido) biphenyl-3-carboxylic acid] it is 0.93 µM. With `CC(C)(C)c1ccccc1Oc1ccc(-c2cccc(C(=O)O)c2)cc1NC(=O)NC1CCCCC1` [Example 221, 4′-(2-tert-butylphenoxy)-3′-(3-cyclohexylureido) biphenyl-3-carboxylic acid], the IC50 turned out to be 1.01 µM. With `CC(C)(C)c1ccccc1Oc1ccc(-c2cc(F)cc(C(=O)O)c2)cc1NC(=O)Nc1ccc(OC(F)(F)F)cc1` [Example 222, 4′-(2-tert-butylphenoxy)-5-fluoro-3′-(3-(4-(trifluoromethoxy)phenyl)ureido) biphenyl-3-carboxylic acid], the IC50 was determined as 1.63 µM. Regarding `CC(C)(C)c1ccccc1Oc1ccc(-c2cccc(C(=O)O)c2)cc1NC(=O)Nc1ccccc1Cl` [Example 228, 4′-(2-tert-butylphenoxy)-3′-(3-(2-chlorophenyl)ureido)biphenyl-3-carboxylic acid], the IC50 is 0.42 µM.

For `CC(C)(C)c1ccccc1Oc1ccc(-c2cccc(C(=O)O)c2)cc1NC(=O)Nc1cccc(Cl)c1` [Example 231, 4′-(2-tert-butylphenoxy)-3′-(3-(3-chlorophenyl)ureido)biphenyl-3-carboxylic acid], the IC50 stood at 0.72 µM. The figure for `CC(C)(C)c1ccccc1Oc1ccc(-c2cccc(C(=O)O)c2)cc1NC(=O)Nc1ccccc1` [Example 234, 4′-(2-tert-butylphenoxy)-3′-(3-phenylureido) biphenyl-3-carboxylic acid] is 1.85 µM; for `Cc1ccc(NC(=O)Nc2cc(-c3cccc(C(=O)O)c3)ccc2Oc2ccccc2)cc1` [Example 235, 4′-phenoxy-3′-(3-p-tolylureido) biphenyl-3-carboxylic acid] it is 1.43 µM.

On to `Cc1cccc(NC(=O)Nc2cc(-c3cc(Cl)cc(C(=O)O)c3)ccc2Oc2ccccc2C(C)(C)C)c1` [Example 239, 4′-(2-tert-butylphenoxy)-5-chloro-3′-(3-m-tolylureido) biphenyl-3-carboxylic acid], for which the IC50 came to 1.02 µM. For the compound `CC(C)(C)c1ccccc1Oc1ccc(-c2cc(Cl)cc(C(=O)O)c2)cc1NC(=O)Nc1ccc(C#N)cc1` [Example 240, 4′-(2-tert-butylphenoxy)-5-chloro-3′-(3-(4-cyanophenyl)ureido)biphenyl-3-carboxylic acid], the IC50 was 0.54 µM. The figure for `CC(C)(C)c1ccccc1Oc1ccc(-c2cc(Cl)cc(C(=O)O)c2)cc1NC(=O)Nc1ccc(C(F)(F)F)cc1` [Example 241, 4′-(2-tert-butylphenoxy)-5-chloro-3′-(3-(4-(trifluoromethyl)phenyl)ureido) biphenyl-3-carboxylic acid] is 1.04 µM; for `O=C(Nc1ccccc1Cl)Nc1cc(-c2cccc(C(=O)O)c2)ccc1Oc1ccc(Cl)cc1` [Example 242, 4′-(4-chlorophenoxy)-3′-(3-(2-chlorophenyl)ureido)biphenyl-3-carboxylic acid] it is 1.15 µM; for `O=C(Nc1ccc(OC(F)(F)F)cc1)Nc1cc(-c2cccc(C(=O)O)c2)ccc1Oc1ccc(Cl)cc1` [Example 243, 4′-(4-chlorophenoxy)-3′-(3-(4-(trifluoromethoxy)phenyl)ureido) biphenyl-3-carboxylic acid] it is 1.82 µM.

With `Cc1ccccc1NC(=O)Nc1cc(-c2cccc(C(=O)O)c2)ccc1Oc1cccc(Cl)c1` [Example 244, 4′-(3-chlorophenoxy)-3′-(3-o-tolylureido) biphenyl-3-carboxylic acid], the IC50 came to 0.84 µM.
